Assay results as given in US10913744B2, “LRRK2 inhibitors and methods of making and using the same” (Dana-Farber Cancer Institute, Inc., priority 2015, dated 2021).
Read-outs that look alike come from different tables or passages of the source.

Tests used:
BMPR2 = BMPR2 (Homo sapiens (Human), UniProt Q13873); test: KinomeScan; type: binding; settings: 1 uM
CDK8 = CDK8 (Homo sapiens (Human), UniProt P49336); test: KinomeScan; type: binding; settings: 1 uM
CSK = CSK (Homo sapiens (Human), UniProt P41240); test: KinomeScan; type: binding; settings: 1 uM
EGFR (L858R) = EGFR (L858R) (Homo sapiens (Human), UniProt P00533, L858R); test: KinomeScan; type: binding; settings: 1 uM
EGFR (T790M) = EGFR (T790M) (Homo sapiens (Human), UniProt P00533, T790M); test: KinomeScan; type: binding; settings: 1 uM
FLT3 (ITD) = test: KinomeScan; type: binding; settings: 1 uM
JNK2 = JNK2 (Homo sapiens (Human), UniProt P45984); test: KinomeScan; type: binding; settings: 1 uM
LATS2 = LATS2 (Homo sapiens (Human), UniProt Q9NRM7); test: KinomeScan; type: binding; settings: 1 uM
MKK7 = MKK7 (Homo sapiens (Human), UniProt O14733); test: KinomeScan; type: binding; settings: 1 uM
MST1 = MST1 (Homo sapiens (Human), UniProt Q13043); test: KinomeScan; type: binding; settings: 1 uM
[1] = molecular target: RSK4 (Kin.Dom.1-N-terminal) (Homo sapiens (Human), UniProt Q9UK32); test: KinomeScan; type: binding; settings: 1 uM
Aurora A = Aurora A (Homo sapiens (Human), UniProt O14965); test: Dundee profiling
Chain of Aurora A (O14965 whole entry): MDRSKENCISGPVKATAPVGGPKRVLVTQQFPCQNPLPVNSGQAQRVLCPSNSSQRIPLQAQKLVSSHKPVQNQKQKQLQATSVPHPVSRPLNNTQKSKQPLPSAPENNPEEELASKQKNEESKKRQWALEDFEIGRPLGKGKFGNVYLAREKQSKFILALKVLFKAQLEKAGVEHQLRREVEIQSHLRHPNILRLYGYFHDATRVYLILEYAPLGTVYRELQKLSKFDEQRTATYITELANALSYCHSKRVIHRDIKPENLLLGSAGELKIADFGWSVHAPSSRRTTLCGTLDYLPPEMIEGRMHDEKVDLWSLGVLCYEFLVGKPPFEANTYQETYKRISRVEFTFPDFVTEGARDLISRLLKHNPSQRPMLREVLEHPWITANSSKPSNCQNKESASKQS

RSK2 = RSK2 (Homo sapiens (Human), UniProt P51812); test: Dundee profiling
IKKe = IKKe (Homo sapiens (Human), UniProt Q14164); test: Dundee profiling
PKCγ = PKCγ (Homo sapiens (Human), UniProt P05129); test: Dundee profiling
MPSK1 = MPSK1 (Homo sapiens (Human), UniProt O75716); test: Dundee profiling
SIK2 = SIK2 (Homo sapiens (Human), UniProt Q9H0K1); test: Dundee profiling
Chain of SIK2 (Q9H0K1 whole entry, looked up, species assumed): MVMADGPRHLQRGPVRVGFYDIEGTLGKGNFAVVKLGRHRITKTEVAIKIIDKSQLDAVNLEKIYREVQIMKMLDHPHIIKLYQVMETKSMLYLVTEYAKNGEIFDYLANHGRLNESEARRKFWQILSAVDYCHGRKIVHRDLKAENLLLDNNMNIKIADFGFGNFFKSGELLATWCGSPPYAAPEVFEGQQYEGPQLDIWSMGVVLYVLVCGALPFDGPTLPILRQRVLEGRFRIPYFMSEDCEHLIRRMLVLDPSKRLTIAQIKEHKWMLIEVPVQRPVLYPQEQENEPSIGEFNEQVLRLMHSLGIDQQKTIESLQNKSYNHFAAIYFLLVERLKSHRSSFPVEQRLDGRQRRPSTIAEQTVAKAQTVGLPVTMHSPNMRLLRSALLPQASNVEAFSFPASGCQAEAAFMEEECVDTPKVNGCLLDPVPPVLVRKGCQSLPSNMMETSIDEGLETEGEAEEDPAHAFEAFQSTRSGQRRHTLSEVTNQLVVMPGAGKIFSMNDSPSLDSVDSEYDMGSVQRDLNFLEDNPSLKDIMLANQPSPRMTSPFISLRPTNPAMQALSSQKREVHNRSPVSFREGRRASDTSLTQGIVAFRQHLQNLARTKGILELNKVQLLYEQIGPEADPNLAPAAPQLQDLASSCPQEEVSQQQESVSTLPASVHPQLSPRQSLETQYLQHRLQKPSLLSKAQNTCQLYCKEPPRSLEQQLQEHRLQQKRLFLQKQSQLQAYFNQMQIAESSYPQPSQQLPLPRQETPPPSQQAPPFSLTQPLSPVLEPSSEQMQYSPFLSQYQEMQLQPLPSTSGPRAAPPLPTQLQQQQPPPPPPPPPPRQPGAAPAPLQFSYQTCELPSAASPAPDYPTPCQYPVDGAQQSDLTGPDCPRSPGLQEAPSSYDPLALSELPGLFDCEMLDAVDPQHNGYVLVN

EPH-A4 = EPH-A4 (Homo sapiens (Human), UniProt P54764); test: Dundee profiling
Chain of EPH-A4 (P54764 20-986, species assumed): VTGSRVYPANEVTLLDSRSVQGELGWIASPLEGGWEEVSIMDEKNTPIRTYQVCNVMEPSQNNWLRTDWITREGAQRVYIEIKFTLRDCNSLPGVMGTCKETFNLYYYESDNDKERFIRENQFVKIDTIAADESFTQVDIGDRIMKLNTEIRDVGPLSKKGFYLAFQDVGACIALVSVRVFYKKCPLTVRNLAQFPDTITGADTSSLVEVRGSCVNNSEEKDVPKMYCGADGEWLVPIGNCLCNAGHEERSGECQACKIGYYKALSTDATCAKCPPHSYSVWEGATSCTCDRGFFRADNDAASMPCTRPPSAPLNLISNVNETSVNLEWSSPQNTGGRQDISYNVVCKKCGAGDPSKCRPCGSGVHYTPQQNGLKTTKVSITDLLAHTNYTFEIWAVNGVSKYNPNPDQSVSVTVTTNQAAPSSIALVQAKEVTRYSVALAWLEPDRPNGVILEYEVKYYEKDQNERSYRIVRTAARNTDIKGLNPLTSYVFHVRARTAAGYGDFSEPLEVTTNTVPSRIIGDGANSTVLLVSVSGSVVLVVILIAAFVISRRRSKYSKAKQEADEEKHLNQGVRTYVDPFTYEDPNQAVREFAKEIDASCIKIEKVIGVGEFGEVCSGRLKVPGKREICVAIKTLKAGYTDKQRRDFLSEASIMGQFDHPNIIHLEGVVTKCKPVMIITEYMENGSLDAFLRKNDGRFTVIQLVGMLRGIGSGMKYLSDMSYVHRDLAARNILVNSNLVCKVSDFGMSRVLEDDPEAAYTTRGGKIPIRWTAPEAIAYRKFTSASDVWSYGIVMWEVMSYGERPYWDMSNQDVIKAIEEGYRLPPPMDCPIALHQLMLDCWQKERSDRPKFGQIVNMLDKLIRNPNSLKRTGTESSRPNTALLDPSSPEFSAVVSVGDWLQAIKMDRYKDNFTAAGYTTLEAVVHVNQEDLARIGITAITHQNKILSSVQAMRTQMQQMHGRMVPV

PKCa = PKCa (Homo sapiens (Human), UniProt P17252); test: Dundee profiling
MNK1 = MNK1 (Homo sapiens (Human), UniProt Q9BUB5); test: Dundee profiling
Lck = Lck (Homo sapiens (Human), UniProt P06239); test: Dundee profiling
TESK1 = TESK1 (Homo sapiens (Human), UniProt Q15569); test: Dundee profiling
Chain of TESK1 (Q15569 whole entry, looked up, species assumed): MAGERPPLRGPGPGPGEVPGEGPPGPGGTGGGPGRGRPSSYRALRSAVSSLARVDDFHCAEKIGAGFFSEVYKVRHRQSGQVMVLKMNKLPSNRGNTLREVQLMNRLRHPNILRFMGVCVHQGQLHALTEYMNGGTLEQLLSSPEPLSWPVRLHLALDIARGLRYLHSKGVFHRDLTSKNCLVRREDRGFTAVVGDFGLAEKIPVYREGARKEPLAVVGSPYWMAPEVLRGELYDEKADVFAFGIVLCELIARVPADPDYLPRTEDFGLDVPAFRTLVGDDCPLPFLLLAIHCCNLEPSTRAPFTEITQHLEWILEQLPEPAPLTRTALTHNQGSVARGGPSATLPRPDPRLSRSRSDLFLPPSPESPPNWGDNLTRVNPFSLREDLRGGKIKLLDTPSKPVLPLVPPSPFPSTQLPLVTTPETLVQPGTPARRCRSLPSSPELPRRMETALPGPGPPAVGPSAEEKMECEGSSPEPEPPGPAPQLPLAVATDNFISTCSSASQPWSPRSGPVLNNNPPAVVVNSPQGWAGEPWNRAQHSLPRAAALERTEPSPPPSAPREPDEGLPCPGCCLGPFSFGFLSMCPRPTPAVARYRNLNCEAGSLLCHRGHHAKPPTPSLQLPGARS

PIM3 = PIM3 (Homo sapiens (Human), UniProt Q86V86); test: Dundee profiling
ERK2 = ERK2 (Homo sapiens (Human), UniProt P28482); test: Dundee profiling
Chain of ERK2 (P28482 whole entry, looked up, species assumed): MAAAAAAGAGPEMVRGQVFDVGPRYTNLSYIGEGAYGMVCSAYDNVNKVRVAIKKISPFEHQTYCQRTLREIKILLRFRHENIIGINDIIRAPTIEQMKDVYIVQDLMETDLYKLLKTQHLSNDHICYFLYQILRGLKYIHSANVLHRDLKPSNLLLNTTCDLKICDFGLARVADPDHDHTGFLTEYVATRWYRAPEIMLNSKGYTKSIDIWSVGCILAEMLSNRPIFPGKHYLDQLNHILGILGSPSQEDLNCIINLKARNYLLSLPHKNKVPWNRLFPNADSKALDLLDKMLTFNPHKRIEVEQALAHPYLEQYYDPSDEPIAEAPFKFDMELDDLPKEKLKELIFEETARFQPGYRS

HER4 = HER4 (Homo sapiens (Human), UniProt Q15303); test: Dundee profiling
BRSK1 = BRSK1 (Homo sapiens (Human), UniProt Q8TDC3); test: Dundee profiling
MARK1 = MARK1 (Homo sapiens (Human), UniProt Q9P0L2); test: Dundee profiling
SRPK1 = SRPK1 (Homo sapiens (Human), UniProt Q96SB4); test: Dundee profiling
Chain of SRPK1 (Q96SB4 whole entry, looked up, species assumed): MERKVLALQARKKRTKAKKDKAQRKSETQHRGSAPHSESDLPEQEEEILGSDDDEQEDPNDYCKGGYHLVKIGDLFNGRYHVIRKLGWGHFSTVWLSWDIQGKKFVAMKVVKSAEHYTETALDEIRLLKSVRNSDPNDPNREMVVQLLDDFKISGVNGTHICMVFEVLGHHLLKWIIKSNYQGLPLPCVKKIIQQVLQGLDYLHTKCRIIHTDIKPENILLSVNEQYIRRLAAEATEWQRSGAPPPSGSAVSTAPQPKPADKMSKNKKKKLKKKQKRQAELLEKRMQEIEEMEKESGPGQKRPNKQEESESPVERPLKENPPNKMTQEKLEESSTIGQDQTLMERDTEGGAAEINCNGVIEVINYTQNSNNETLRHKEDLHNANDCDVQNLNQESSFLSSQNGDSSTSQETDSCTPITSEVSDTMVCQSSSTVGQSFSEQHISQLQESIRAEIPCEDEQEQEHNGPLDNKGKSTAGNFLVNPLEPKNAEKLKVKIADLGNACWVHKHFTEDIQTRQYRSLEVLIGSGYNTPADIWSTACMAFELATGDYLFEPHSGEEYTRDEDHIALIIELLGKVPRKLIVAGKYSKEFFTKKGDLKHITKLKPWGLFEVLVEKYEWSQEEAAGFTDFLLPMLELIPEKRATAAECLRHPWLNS

SGK1 = SGK1 (Homo sapiens (Human), UniProt O00141); test: Dundee profiling
GSK3b = GSK3b (Homo sapiens (Human), UniProt P49841); test: Dundee profiling
Chain of GSK3b (P49841 whole entry, looked up, species assumed): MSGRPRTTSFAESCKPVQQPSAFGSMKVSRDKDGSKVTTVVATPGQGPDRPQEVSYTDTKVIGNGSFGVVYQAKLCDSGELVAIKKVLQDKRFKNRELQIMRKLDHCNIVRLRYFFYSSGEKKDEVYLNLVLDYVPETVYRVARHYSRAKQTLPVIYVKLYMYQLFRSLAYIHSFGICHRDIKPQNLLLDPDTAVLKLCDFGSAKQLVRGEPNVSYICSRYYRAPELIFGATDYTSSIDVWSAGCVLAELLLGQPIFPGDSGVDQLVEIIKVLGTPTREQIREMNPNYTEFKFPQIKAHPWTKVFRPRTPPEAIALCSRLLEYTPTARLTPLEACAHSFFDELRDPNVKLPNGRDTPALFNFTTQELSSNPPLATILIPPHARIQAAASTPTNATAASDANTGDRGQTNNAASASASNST

TTK = TTK (Homo sapiens (Human), UniProt P33981); test: Dundee profiling
OSR1 = OSR1 (Homo sapiens (Human), UniProt O95747); test: Dundee profiling
IRR = IRR (Homo sapiens (Human), UniProt P14616); test: Dundee profiling
IR = IR (Homo sapiens (Human), UniProt P06213); test: Dundee profiling
IGF-1R = IGF-1R (Homo sapiens (Human), UniProt P08069); test: Dundee profiling
[2] = read-out: percent remaining enzymatic activity, I1, 1 μM
[3] = read-out: percent remaining enzymatic activity, I10

## CNc1nc(Nc2ccc(C(=O)N3CCOCC3)cc2OC)nc2[nH]cc(Cl)c12 [Compound 18, (4-((5-chloro-4-(methylamino)-7H-pyrrolo[2,3-d]pyrimidin-2-yl)amino)-3-methoxyphenyl)(morpholino)methanone]
BMPR2
  KinomeScan value: 100
CDK8
  KinomeScan value: 74
CSK
  KinomeScan value: 100
EGFR (L858R)
  KinomeScan value: 83
EGFR (T790M)
  KinomeScan value: 97
FLT3 (ITD)
  KinomeScan value: 94
JNK2
  KinomeScan value: 78
LATS2
  KinomeScan value: 93
MKK7
  KinomeScan value: 100
MST1
  KinomeScan value: 100
[1]
  KinomeScan value: 93
Aurora A; [2]
  remaining activity at 1 µM: 124%
Aurora A; [3]
  remaining activity at 1 µM: 112%
RSK2; [2]
  remaining activity at 1 µM: 117%
RSK2; [3]
  remaining activity at 1 µM: 94%
IKKe; [2]
  remaining activity at 1 µM: 114%
IKKe; [3]
  remaining activity at 1 µM: 98%
PKCγ; [2]
  remaining activity at 1 µM: 113%
PKCγ; [3]
  remaining activity at 1 µM: 109%
MPSK1; [2]
  remaining activity at 1 µM: 113%
MPSK1; [3]
  remaining activity at 1 µM: 106%
SIK2; [2]
  remaining activity at 1 µM: 109%
SIK2; [3]
  remaining activity at 1 µM: 92%
EPH-A4; [2]
  remaining activity at 1 µM: 107%
EPH-A4; [3]
  remaining activity at 1 µM: 102%
PKCa; [2]
  remaining activity at 1 µM: 102%
PKCa; [3]
  remaining activity at 1 µM: 100%
MNK1; [2]
  remaining activity at 1 µM: 102%
MNK1; [3]
  remaining activity at 1 µM: 78%
Lck; [2]
  remaining activity at 1 µM: 97%
Lck; [3]
  remaining activity at 1 µM: 111%
TESK1; [2]
  remaining activity at 1 µM: 97%
TESK1; [3]
  remaining activity at 1 µM: 95%
PIM3; [2]
  remaining activity at 1 µM: 96%
PIM3; [3]
  remaining activity at 1 µM: 75%
ERK2; [2]
  remaining activity at 1 µM: 94%
ERK2; [3]
  remaining activity at 1 µM: 71%
HER4; [2]
  remaining activity at 1 µM: 94%
HER4; [3]
  remaining activity at 1 µM: 71%
BRSK1; [2]
  remaining activity at 1 µM: 94%
BRSK1; [3]
  remaining activity at 1 µM: 98%
MARK1; [2]
  remaining activity at 1 µM: 89%
MARK1; [3]
  remaining activity at 1 µM: 77%
SRPK1; [2]
  remaining activity at 1 µM: 89%
SRPK1; [3]
  remaining activity at 1 µM: 31%
SGK1; [2]
  remaining activity at 1 µM: 86%
SGK1; [3]
  remaining activity at 1 µM: 76%
GSK3b; [2]
  remaining activity at 1 µM: 82%
GSK3b; [3]
  remaining activity at 1 µM: 97%
TTK; [2]
  remaining activity at 1 µM: 69%
TTK; [3]
  remaining activity at 1 µM: 12%
OSR1; [2]
  remaining activity at 1 µM: 61%
OSR1; [3]
  remaining activity at 1 µM: 12%
IRR; [2]
  remaining activity at 1 µM: 31%
IRR; [3]
  remaining activity at 1 µM: 10%
IR; [2]
  remaining activity at 1 µM: 21%
IR; [3]
  remaining activity at 1 µM: 10%
IGF-1R; [2]
  remaining activity at 1 µM: 13%
IGF-1R; [3]
  remaining activity at 1 µM: 9%
